Source: ChEMBL document CHEMBL5365420, “Kinetics, Thermodynamics, and Structural Effects of Quinoline-2-Carboxylates, Zinc-Binding Inhibitors of New Delhi Metallo-β-lactamase-1 Re-sensitizing Multidrug-Resistant Bacteria for Carbapenems” (J Med Chem, 2023)

Columns and labels:
[1] = target: T1, 72 kDa type IV collagenase (Homo sapiens, UniProt P08253); assay: Inhibition of human recombinant MMP-2 CD at 10 uM using OMNIMMP as substrate incubated for 30 mins by fluorescence based analysis relative to control
Target sequence in this assay (P08253 110-660 limits assumed): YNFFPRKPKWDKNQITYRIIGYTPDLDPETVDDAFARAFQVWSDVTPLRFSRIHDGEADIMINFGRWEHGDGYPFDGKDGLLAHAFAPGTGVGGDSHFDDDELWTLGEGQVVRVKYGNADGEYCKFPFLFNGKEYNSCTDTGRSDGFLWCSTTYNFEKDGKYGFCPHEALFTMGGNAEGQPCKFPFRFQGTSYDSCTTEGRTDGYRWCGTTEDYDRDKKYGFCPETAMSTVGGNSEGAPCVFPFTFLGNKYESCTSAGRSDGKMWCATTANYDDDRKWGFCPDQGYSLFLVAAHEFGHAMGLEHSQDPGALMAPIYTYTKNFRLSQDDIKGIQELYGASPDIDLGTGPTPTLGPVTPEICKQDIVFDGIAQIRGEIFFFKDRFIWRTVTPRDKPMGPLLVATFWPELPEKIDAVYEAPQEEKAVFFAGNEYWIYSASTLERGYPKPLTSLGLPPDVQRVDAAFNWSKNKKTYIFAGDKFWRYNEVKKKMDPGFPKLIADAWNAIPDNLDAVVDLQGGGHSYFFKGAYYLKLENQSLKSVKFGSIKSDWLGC

[2] = target: Carbonic anhydrase 2 (Homo sapiens) (UniProt P00918); assay: Inhibition of human CA2 at 10 uM using pNPA as substrate preincubated for 15 mins followed by substrate by absorbance based analysis relative to control
[3] = target: T1, 72 kDa type IV collagenase; assay: Binding affinity to human recombinant MMP-2 CD assessed as inhibition constant using OMNIMMP as substrate incubated for 30 mins by fluorescence based analysis
Target sequence in this assay (P08253 whole entry): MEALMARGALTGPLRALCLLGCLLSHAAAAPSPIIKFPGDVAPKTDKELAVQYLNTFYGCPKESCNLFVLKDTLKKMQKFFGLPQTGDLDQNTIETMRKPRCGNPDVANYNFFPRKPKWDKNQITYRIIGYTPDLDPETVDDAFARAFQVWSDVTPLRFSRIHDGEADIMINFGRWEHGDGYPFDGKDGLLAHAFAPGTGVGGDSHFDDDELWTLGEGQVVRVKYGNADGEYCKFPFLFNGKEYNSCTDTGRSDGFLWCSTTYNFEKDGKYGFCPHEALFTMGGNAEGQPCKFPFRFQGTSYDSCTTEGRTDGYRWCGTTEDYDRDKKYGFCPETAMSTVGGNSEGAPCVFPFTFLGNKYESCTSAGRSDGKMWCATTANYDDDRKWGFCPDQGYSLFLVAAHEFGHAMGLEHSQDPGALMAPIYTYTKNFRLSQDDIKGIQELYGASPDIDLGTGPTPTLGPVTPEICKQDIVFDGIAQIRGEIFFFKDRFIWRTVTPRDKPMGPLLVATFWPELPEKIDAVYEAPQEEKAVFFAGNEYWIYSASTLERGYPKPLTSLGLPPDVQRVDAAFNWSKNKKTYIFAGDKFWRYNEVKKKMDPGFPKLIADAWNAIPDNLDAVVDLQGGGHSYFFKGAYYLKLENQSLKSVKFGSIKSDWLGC

Escherichia coli [4] = assay: Antibacterial activity against clinical isolate Escherichia coli K12 J53-ST10 696/17 expressing blaNDM-1 co-expressing blaCMY-4 assessed as meropenem MIC at 36.44 uM measured after 20 hrs by broth microdilution assay (reference value: 12 mg/L); format: functional
Escherichia coli [5] = assay: Antibacterial activity against clinical isolate Escherichia coli K12 J53-ST10 696/17 expressing blaNDM-1 co-expressing blaCMY-4 assessed as meropenem MIC at 72.88 uM measured after 20 hrs by broth microdilution assay (reference value: 24 mg/L); format: functional
Acinetobacter baumannii = assay: Antibacterial activity against clinical isolate Acinetobacter baumannii IC 19/09 expressing blaNDM-1 co-expressing blaOXA-64 assessed as meropenem MIC at 36.44 uM measured after 20 hrs by broth microdilution assay (reference value: 12 mg/L); format: functional
Klebsiella pneumoniae [6] = assay: Antibacterial activity against clinical isolate Klebsiella pneumoniae ST1493/10 expressing blaNDM-1 co-expressing blaCMY-2like/blaTEM-1/blaCTX-M-15/blaSHV-28/blaOXA-1 and blaOXA-9 assessed as meropenem MIC at 36.44 uM measured after 20 hrs by broth microdilution assay (reference value: 12 mg/L); format: functional
Klebsiella pneumoniae [7] = assay: Antibacterial activity against clinical isolate Klebsiella pneumoniae 50/20 expressing blaNDM-5 co-expressing blaTEM-1 and blaSHV-1 assessed as meropenem MIC at 36.44 uM measured after 20 hrs by broth microdilution assay (reference value: 12 mg/L); format: functional
Escherichia coli [8] = assay: Antibacterial activity against clinical isolate Escherichia coli 371/12 expressing blaNDM-7 co-expressing blaCTX-M-15 and blaOXA-1 assessed as meropenem MIC at 36.44 uM measured after 20 hrs by broth microdilution assay (reference value: 12 mg/L); format: functional
[9] = target: Metallo-beta-lactamase type 2 (Bacteria, UniProt C7C422)
Description: Binding affinity to C-terminal 6His-tagged full length biotin-labeled NDM-1 (unknown origin) expressed in Escherichia coli BL21-DE3 assessed as dissociation constant by BLI assay

[10] = target: Metallo-beta-lactamase type 2 (Bacteria) (UniProt C7C422)
Description: Binding affinity to C-terminal 6His-tagged full length truncated NDM-1 (unknown origin) expressed in Escherichia coli BL21-DE3 assessed as change in Gibbs free energy by isothermal titration calorimetric analysis

[11] = target: Metallo-beta-lactamase type 2 (Bacteria) (UniProt C7C422); remark: listed apart in the source
Description: Binding affinity to C-terminal 6His-tagged full length truncated NDM-1 (unknown origin) expressed in Escherichia coli BL21-DE3 assessed as change in entropy by isothermal titration calorimetric analysis

Chain of Metallo-beta-lactamase type 2 (Bacteria) (C7C422 whole entry): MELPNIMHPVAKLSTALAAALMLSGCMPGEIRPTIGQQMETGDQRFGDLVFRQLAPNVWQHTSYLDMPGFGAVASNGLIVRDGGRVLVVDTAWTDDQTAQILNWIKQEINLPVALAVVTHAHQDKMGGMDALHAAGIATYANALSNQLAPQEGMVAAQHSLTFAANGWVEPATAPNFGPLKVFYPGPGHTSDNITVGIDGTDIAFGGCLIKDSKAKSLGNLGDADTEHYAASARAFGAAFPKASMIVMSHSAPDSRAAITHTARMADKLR
Chain of Metallo-beta-lactamase type 2 (C7C422 whole entry): as above

SMILES: O=C(O)c1ccc2cccc(NS(=O)(=O)c3ccccn3)c2n1
- inhibition [1]: > 90%
- inhibition [2]: < 5%
- Ki [3]: 5.78 µM
- MIC (Escherichia coli [4]): ≤ 0.125 µg/mL
- MIC (Escherichia coli [5]): ≤ 0.125 µg/mL
- MIC (Acinetobacter baumannii): 4 µg/mL
- MIC (Klebsiella pneumoniae [6]): 2 µg/mL
- MIC (Klebsiella pneumoniae [7]): 0.5 µg/mL
- MIC (Escherichia coli [8]): 8 µg/mL
- Kd [9]: 14.1 µM
- deltaG [10]: -9.54 kcal/mol
- -TdeltaS [11]: -2.92 kcal/mol
